We go through one compound from PubChem BioAssay AID1794811.

By EC50 is commonly meant the concentration that produces a half-maximal response.

This test addresses High affinity choline transporter 1 (Homo sapiens) (UniProt Q9GZV3). Kind of test: PubChem AID 1794811. The conditions noted are these: HEK-293 JumpIN-SLC5A7, FLIPR membrane potential dye.

High affinity choline transporter 1 (Homo sapiens), sequence (Q9GZV3 whole entry, looked up): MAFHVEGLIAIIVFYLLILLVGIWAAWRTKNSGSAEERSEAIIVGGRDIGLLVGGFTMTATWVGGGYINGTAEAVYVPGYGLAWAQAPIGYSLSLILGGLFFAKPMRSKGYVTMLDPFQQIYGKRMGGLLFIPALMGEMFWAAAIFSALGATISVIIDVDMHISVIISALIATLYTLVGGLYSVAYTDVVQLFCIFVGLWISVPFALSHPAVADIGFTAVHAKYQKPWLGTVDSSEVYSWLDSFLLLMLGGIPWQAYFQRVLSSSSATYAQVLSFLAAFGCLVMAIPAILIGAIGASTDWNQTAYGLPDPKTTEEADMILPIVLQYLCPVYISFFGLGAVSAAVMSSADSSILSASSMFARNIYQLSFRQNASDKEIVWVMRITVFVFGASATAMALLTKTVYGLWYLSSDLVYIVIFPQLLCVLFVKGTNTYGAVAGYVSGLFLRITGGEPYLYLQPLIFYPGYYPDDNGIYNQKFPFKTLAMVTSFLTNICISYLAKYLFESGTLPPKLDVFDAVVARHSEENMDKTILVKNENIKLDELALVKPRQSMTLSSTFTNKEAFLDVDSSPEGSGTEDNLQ

As for `C[N+](C)(C)CCO`, the EC50 is 17 µM.
